Data published in PubChem BioAssay (NCI).
“And” between values parts separate entries of the source, which are not always exact repeats. Identical values can stand only once.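 48-hour exposure; five concentrations; linearly interpolated endpoints. GI50 marks 50% less growth. At the TGI there is no net growth.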

Tests used:
Test in all cases: NCI anticancer screen, dose series, 48 h
HOP-62 NSCLC = test system: HOP-62 NSCLC
HOP-92 NSCLC = test system: HOP-92 NSCLC
IGROV1 ovarian = test system: IGROV1 ovarian
MDA-MB-435 = test system: MDA-MB-435
NCI-H460 lung = test system: NCI-H460 lung
NCI-H522 lung = test system: NCI-H522 lung
OVCAR-5 ovarian = test system: OVCAR-5 ovarian
SK-MEL-5 melanoma = test system: SK-MEL-5 melanoma
SW-620 colon = test system: SW-620 colon
UO-31 renal = test system: UO-31 renal

Work on `Cn1cc(C2=C(c3cn(CCCCC(=N)N)c4ccccc34)C(=O)NC2=O)c2ccccc21` yielded a GI50 (HOP-62 NSCLC) greater than 25 µM, a TGI (HOP-62 NSCLC) greater than 25 µM and a GI50 (HOP-92 NSCLC) greater than 25 µM. It also gave a TGI (HOP-92 NSCLC) greater than 25 µM, a GI50 (IGROV1 ovarian) greater than 21.9 µM and a TGI (IGROV1 ovarian) greater than 25 µM. It also gave a GI50 (MDA-MB-435) of 10.5 µM, a TGI (MDA-MB-435) greater than 25 µM and a GI50 (NCI-H460 lung) greater than 23.8 µM. It also gave a TGI (NCI-H460 lung) greater than 25 µM, a GI50 (NCI-H522 lung) of 18.6 µM and a TGI (NCI-H522 lung) greater than 25 µM. For the same molecule, the GI50 (OVCAR-5 ovarian) was greater than 25 µM, the TGI (OVCAR-5 ovarian) was greater than 25 µM and the GI50 (SK-MEL-5 melanoma) was greater than 23.6 µM. The TGI (SK-MEL-5 melanoma) was greater than 25 µM, the GI50 (SW-620 colon) was greater than 25 µM and the TGI (SW-620 colon) was greater than 25 µM. The GI50 (UO-31 renal) was greater than 25 µM and the TGI (UO-31 renal) was greater than 25 µM.

With `Cn1cc(-c2nc(N[C@@H]3CCCC[C@@H]3N)c(F)c3c2C(=O)NC3)cn1` the GI50 (HOP-62 NSCLC) was 3.37 µM and 3.32 µM, the TGI (HOP-62 NSCLC) was 29.7 µM and 30.5 µM and the GI50 (HOP-92 NSCLC) was 3.62 µM and 4.47 µM. The TGI (HOP-92 NSCLC) was 23.9 µM and 29.1 µM, the GI50 (IGROV1 ovarian) was 5 µM and 5.65 µM and the TGI (IGROV1 ovarian) was greater than 68.9 µM. The GI50 (MDA-MB-435) was 5.64 µM and 7.4 µM, the TGI (MDA-MB-435) was greater than 100 µM and the GI50 (NCI-H460 lung) was 5.87 µM and 6.08 µM. For the same molecule, the TGI (NCI-H460 lung) was 63.2 µM and > 100 µM, the GI50 (NCI-H522 lung) was 12.8 µM and 13.1 µM and the TGI (NCI-H522 lung) was 66.5 µM and > 91.1 µM. For the same molecule, the GI50 (OVCAR-5 ovarian) was 7.14 µM and 8.43 µM, the TGI (OVCAR-5 ovarian) was greater than 100 µM and the GI50 (SK-MEL-5 melanoma) was 29.2 µM and 22.6 µM. For the same molecule, the TGI (SK-MEL-5 melanoma) was greater than 100 µM, the GI50 (SW-620 colon) was 4.26 µM and 5 µM and the TGI (SW-620 colon) was greater than 100 µM. The GI50 (UO-31 renal) was 5.74 µM and 7.49 µM and the TGI (UO-31 renal) was 19.7 µM and 21.1 µM.

With `CN1CCN(c2ccc3nc(-c4ccc(OCCCCN5CCN(CCCCN6C(=O)c7cccc8cccc(c78)C6=O)CC5)cc4)[nH]c3c2)CC1` the GI50 (HOP-62 NSCLC) was greater than 100 µM, the TGI (HOP-62 NSCLC) was greater than 100 µM and the GI50 (HOP-92 NSCLC) was 71.4 µM. For the same molecule, the TGI (HOP-92 NSCLC) was greater than 100 µM, the GI50 (IGROV1 ovarian) was 48.4 µM and the TGI (IGROV1 ovarian) was greater than 100 µM. It also gave a GI50 (MDA-MB-435) of 41 µM, a TGI (MDA-MB-435) greater than 100 µM and a GI50 (NCI-H460 lung) of 63.4 µM. For the same molecule, the TGI (NCI-H460 lung) was greater than 100 µM, the GI50 (NCI-H522 lung) was 52.9 µM and the TGI (NCI-H522 lung) was greater than 100 µM. The GI50 (OVCAR-5 ovarian) was greater than 100 µM, the TGI (OVCAR-5 ovarian) was greater than 100 µM and the GI50 (SK-MEL-5 melanoma) was 18.8 µM. It also gave a TGI (SK-MEL-5 melanoma) of 76.9 µM, a GI50 (SW-620 colon) of 39.2 µM and a TGI (SW-620 colon) greater than 100 µM. The GI50 (UO-31 renal) was 58.4 µM and the TGI (UO-31 renal) was greater than 100 µM.

With `O=C(/C=C/c1ccco1)c1ccc(Nc2nc(Nc3ccc(F)cc3)nc(Nc3ccc(F)cc3)n2)cc1` the GI50 (HOP-62 NSCLC) was 57.4 µM, the TGI (HOP-62 NSCLC) was greater than 100 µM and the GI50 (HOP-92 NSCLC) was 4.17 µM. For the same molecule, the TGI (HOP-92 NSCLC) was 41.6 µM, the GI50 (IGROV1 ovarian) was 10.7 µM and the TGI (IGROV1 ovarian) was 29.6 µM. For the same molecule, the GI50 (MDA-MB-435) was 16.6 µM, the TGI (MDA-MB-435) was 74.4 µM and the GI50 (NCI-H460 lung) was 13.1 µM. The TGI (NCI-H460 lung) was 59 µM, the GI50 (NCI-H522 lung) was 21.4 µM and the TGI (NCI-H522 lung) was 74.6 µM. The GI50 (OVCAR-5 ovarian) was 47.6 µM, the TGI (OVCAR-5 ovarian) was greater than 100 µM and the GI50 (SK-MEL-5 melanoma) was 27 µM. For the same molecule, the TGI (SK-MEL-5 melanoma) was greater than 100 µM, the GI50 (SW-620 colon) was 19 µM and the TGI (SW-620 colon) was greater than 100 µM. For the same molecule, the GI50 (UO-31 renal) was 14.7 µM and the TGI (UO-31 renal) was 37.2 µM.

Work on `O=S(=O)(O)SCCNCCCCCC1CCCCC1` yielded a TGI (HOP-62 NSCLC) of 17.9 µM, a TGI (HOP-92 NSCLC) of 39.9 µM and a TGI (IGROV1 ovarian) of 20.7 µM. It also gave a TGI (MDA-MB-435) of 18.5 µM, a TGI (NCI-H460 lung) of 9.16 µM and a TGI (NCI-H522 lung) of 37.3 µM. It also gave a TGI (OVCAR-5 ovarian) of 23.8 µM, a TGI (SK-MEL-5 melanoma) of 31.9 µM and a TGI (SW-620 colon) of 21.7 µM. It also gave a TGI (UO-31 renal) of 29.8 µM.

In the case of `Cc1cc2nc(-c3c(F)cccc3Cl)n(Cc3c(F)cccc3Cl)c2cc1C`, the GI50 (HOP-62 NSCLC) is reported as 13.9 µM, the TGI (HOP-62 NSCLC) is reported as 29.1 µM and the GI50 (HOP-92 NSCLC) is reported as 14 µM. It also gave a TGI (HOP-92 NSCLC) of 33.5 µM, a GI50 (IGROV1 ovarian) of 33 µM and a TGI (IGROV1 ovarian) greater than 100 µM. It also gave a GI50 (MDA-MB-435) of 7.33 µM, a TGI (MDA-MB-435) of 22.7 µM and a GI50 (NCI-H460 lung) of 6.32 µM. The TGI (NCI-H460 lung) was 30.9 µM, the GI50 (NCI-H522 lung) was 20.3 µM and the TGI (NCI-H522 lung) was 48.9 µM. For the same molecule, the GI50 (OVCAR-5 ovarian) was 15.9 µM, the TGI (OVCAR-5 ovarian) was 34.1 µM and the GI50 (SK-MEL-5 melanoma) was 11.2 µM. For the same molecule, the TGI (SK-MEL-5 melanoma) was 23.6 µM, the GI50 (SW-620 colon) was 11.8 µM and the TGI (SW-620 colon) was 32.4 µM. It also gave a GI50 (UO-31 renal) of 13.2 µM and a TGI (UO-31 renal) of 54.5 µM.

In the case of `O=C(CCCCCCCCC(=O)N/N=C\c1cc(Cl)ccc1O)N/N=C\c1cc(Cl)ccc1O`, the GI50 (HOP-62 NSCLC) is reported as 0.284 µM, the TGI (HOP-62 NSCLC) is reported as greater than 100 µM and the GI50 (HOP-92 NSCLC) is reported as 0.105 µM. For the same molecule, the TGI (HOP-92 NSCLC) was 37.5 µM, the GI50 (IGROV1 ovarian) was 0.83 µM and the TGI (IGROV1 ovarian) was greater than 100 µM. The GI50 (MDA-MB-435) was 0.625 µM, the TGI (MDA-MB-435) was greater than 100 µM and the GI50 (NCI-H460 lung) was 0.162 µM. It also gave a TGI (NCI-H460 lung) of 19.6 µM, a GI50 (NCI-H522 lung) of 0.31 µM and a TGI (NCI-H522 lung) greater than 100 µM. For the same molecule, the GI50 (OVCAR-5 ovarian) was 7.99 µM, the TGI (OVCAR-5 ovarian) was greater than 100 µM and the GI50 (SK-MEL-5 melanoma) was 0.161 µM. It also gave a TGI (SK-MEL-5 melanoma) of 0.659 µM, a GI50 (SW-620 colon) of 0.916 µM and a TGI (SW-620 colon) greater than 100 µM. For the same molecule, the GI50 (UO-31 renal) was 0.152 µM and the TGI (UO-31 renal) was greater than 100 µM.

Molecule `CCOC(=O)c1c(C)n(Cc2ccccc2)c2c1cc1oc(=O)c(=O)n3cnc2c13` has a GI50 (HOP-62 NSCLC) of 29.4 µM, a TGI (HOP-62 NSCLC) greater than 50 µM and a GI50 (HOP-92 NSCLC) of 2.83 µM. For the same molecule, the TGI (HOP-92 NSCLC) was 20.1 µM, the GI50 (IGROV1 ovarian) was 28.1 µM and the TGI (IGROV1 ovarian) was greater than 50 µM. The GI50 (MDA-MB-435) was 10.7 µM, the TGI (MDA-MB-435) was 32.9 µM and the GI50 (NCI-H460 lung) was 15.9 µM. The TGI (NCI-H460 lung) was greater than 50 µM, the GI50 (NCI-H522 lung) was greater than 50 µM and the TGI (NCI-H522 lung) was greater than 50 µM. For the same molecule, the GI50 (OVCAR-5 ovarian) was 36.9 µM, the TGI (OVCAR-5 ovarian) was greater than 50 µM and the GI50 (SK-MEL-5 melanoma) was 10.4 µM. The TGI (SK-MEL-5 melanoma) was 26.7 µM, the GI50 (SW-620 colon) was 14.1 µM and the TGI (SW-620 colon) was 34.7 µM. It also gave a GI50 (UO-31 renal) of 25.6 µM and a TGI (UO-31 renal) greater than 50 µM.
